Patent US20080292584A1 (priority 2005, published 2008)
Several values for one entry are separate records, joined by “and”; a condition that tells them apart may be missing. Equal values may be shown once. Read-outs that look alike come from different tables or passages of the source.

Key:
CYP2A6 = assay: Induction/inhibition of CYP2A6 activity in cryopreserved human hepatocytes (coumarin); type: in vitro ADME
Excerpt: Hepatocytes from three human donors were obtained from a cryopreserved hepatocyte bank (In Vitro Technologies, Inc., USA). After thawing, viable hepatocytes were transferred to collagen-coated 48-well plates for attachment in plating medium (DMEM stock (Dulbecco's modified Eagle's medium, supplemented with bovine serum albumin, fructose, N-(2-hydroxyethyl)piperazine-N′-(2-ethanesulfonate) (HEPES), and sodium bicarbonate), supplemented with antibiotics, bovine serum, hydrocortisone, insulin and minimum essential medium (MEM) nonessential amino acids). After attachment to the collagen matrix, plating medium was replaced with sandwich medium (plating medium supplemented with VITROGEN) and incubated until use.
The supplemented KHB was replaced with 150 μL supplemented KHB containing the appropriate isoform-selective substrate and incubated for 4 hrs prior to termination by adding 150 μL ice-cold methanol, except for the CYP2C8 incubations which were terminated by adding 150 μL acetonitrile.
All substrates were dissolved in acetonitrile.
Replicate trials and controls were performed. […] Additionally, reference control samples were included to evaluate inducibility of CYP2B6, CYP2C9, and CYP2C19 in the test system.
Mean specific activity values with associated p-values≦0.05 were deemed to be statistically significant.

CYP2C19 [1] = target: T1, CYP2C19 (Homo sapiens, UniProt P33261);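 further: CYP2C19 incubations ran for 30 minutes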
T1 sequence (P33261 whole entry): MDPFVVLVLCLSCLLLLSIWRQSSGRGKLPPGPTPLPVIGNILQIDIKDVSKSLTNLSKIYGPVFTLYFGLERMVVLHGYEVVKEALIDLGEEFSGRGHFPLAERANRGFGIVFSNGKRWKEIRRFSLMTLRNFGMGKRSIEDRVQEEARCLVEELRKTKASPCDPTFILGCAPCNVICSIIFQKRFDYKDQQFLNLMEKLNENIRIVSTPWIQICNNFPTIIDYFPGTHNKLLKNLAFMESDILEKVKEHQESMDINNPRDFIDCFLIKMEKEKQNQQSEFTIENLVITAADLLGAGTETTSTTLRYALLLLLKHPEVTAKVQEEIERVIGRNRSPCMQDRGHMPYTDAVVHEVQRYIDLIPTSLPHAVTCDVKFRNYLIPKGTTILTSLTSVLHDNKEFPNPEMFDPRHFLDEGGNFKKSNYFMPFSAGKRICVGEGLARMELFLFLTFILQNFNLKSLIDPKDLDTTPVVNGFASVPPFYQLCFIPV
Procedure: Microsomes were prepared by differential centrifugation of liver homogenates pooled from at least ten human donors.
After a 5 minute preincubation, NADPH regenerating system (NRS) was added to initiate the reaction. CYP2A6 and CYP3A4 incubations were for 10 minutes. All other incubations were for 30 minutes.
Incubations for CYP2C8 were terminated by adding 1.0 mL of ACN, while all other incubations were terminated by adding 1.0 mL of methanol.
Vehicle control experiments were performed to establish a baseline value for enzyme activity. […] Four replicates were performed.
Two replicates were performed. […] No interference was detected in any of the metabolite assay methods used.

CYP2E1 = CYP2E1 (Homo sapiens, UniProt P05181); assay: Metabolism of metaxalone by expressed recombinant human CYP2E1 (Example 1); conditions: 30 min
Sequence of CYP2E1 (P05181 whole entry): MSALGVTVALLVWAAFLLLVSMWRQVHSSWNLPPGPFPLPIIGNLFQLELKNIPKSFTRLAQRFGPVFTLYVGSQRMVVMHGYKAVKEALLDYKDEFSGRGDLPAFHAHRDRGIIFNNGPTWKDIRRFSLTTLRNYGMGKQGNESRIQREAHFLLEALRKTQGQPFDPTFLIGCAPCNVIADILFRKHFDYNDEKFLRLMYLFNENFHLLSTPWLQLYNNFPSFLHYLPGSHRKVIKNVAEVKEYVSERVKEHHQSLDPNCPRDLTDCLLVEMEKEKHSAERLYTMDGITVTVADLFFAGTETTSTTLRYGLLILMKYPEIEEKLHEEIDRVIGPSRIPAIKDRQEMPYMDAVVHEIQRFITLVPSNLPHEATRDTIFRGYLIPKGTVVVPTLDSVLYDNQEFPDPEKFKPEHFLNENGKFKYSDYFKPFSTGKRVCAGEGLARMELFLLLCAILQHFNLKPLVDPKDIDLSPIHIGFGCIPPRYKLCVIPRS
Procedure: (§1) Commercially available microsomes from baculovirus-infected insect cells containing singly-expressed recombinant wild-type (*1 allele) human CYP enzymes and cDNA-expressed human cytochrome p450 oxidoreductase [BD SUPERSOMES Enzymes; BD Biosciences Discovery Labware (Woburn, Mass.)] were used.
(§2) After a 5-minute pre-incubation, an NADPH regenerating system (NRS) was added to the incubation mixtures to initiate reactions, with a final incubation volume of 0.5 mL. Incubations were continued for 30 minutes, and then terminated, except for those for CYP2C19, which were incubated for 36 minutes prior to termination.
(§3) Matrix controls were performed to determine the background signal from the matrix components (microsomes (10 pmol p450), 01N Tris buffer, NRS, and 1% methanol). […] After a 5-minute pre-incubation, 2% sodium bicarbonate solution was added to the incubation mixtures. Incubation was for 30 minutes at a final volume of 0.5 mL. Matrix and metabolic negative controls were terminated by adding an equal volume of methanol. […] Analysis of samples was subsequent to storage at −70° C.

CYP2C19 [2] = target: T1, CYP2C19; assay: Metabolism of metaxalone by expressed recombinant human CYP2C19 (Example 1); conditions: for Metaxalone Present Adjusted Individual / Metaxalone Present Adjusted Mean ± SD / Metaxalone Present Raw / Percent of Metabolic Negative Control Individual / Percent of Metabolic Negative Control Mean ± SD: 36 min;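 on all read-outs here: microsomes with expressed CYP2C19 (10 pmol P450) in Tris buffer with 1% methanol, reaction started by an NADPH regenerating system after 5 min preincubation, 0.5 mL volume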
Procedure: as §1, §2, §3

CYP3A4 = CYP3A4 (Homo sapiens, UniProt P08684); assay: Metabolism of metaxalone by expressed recombinant human CYP3A4 at 5 or 20 pmol (Example 4); conditions: for percent turnover / % Turnover Mean / [metaxalone] Mean / % Turnover % / [metaxalone]: 60 min; for % Turnover % / [metaxalone]: single replicates, listed as Metaxalone
Sequence of CYP3A4 (P08684 2-503 limits assumed): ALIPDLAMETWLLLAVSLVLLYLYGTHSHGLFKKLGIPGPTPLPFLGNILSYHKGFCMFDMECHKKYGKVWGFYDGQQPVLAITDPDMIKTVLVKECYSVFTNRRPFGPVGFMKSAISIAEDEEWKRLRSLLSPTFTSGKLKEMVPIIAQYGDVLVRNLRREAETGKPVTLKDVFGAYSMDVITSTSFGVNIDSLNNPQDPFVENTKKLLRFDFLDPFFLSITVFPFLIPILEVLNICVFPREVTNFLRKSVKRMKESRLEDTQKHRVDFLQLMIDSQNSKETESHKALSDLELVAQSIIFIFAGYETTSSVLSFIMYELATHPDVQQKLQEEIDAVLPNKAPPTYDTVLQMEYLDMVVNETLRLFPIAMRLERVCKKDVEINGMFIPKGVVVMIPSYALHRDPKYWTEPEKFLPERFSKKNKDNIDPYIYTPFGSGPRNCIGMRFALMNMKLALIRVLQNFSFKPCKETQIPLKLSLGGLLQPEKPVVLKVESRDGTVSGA

[3] = 0.75 μM metaxalone, 20 pmol cyp

Cc1cc(C)cc(OCC2CNC(=O)O2)c1 (centres unmarked) [metaxalone, 5-[(3,5-dimethylphenoxy)methyl]-2-oxazolidinone]
Inducer/Inhibitor (CYP2A6; CYP isozyme 2A6, summary of studies): 0 | Percent of VC (CYP2A6; Donor 1, Metaxalone 0.4 μM): 100% | Specific Activity Individual (CYP2A6; Donor 1, Metaxalone 0.4 μM): <2.68 pmol/min/million cells | Specific Activity Mean ± SD (CYP2A6; Donor 1, Metaxalone 0.4 μM): <2.68 ± 0.000 pmol/min/million cells | Percent of VC (CYP2A6; Donor 1, Metaxalone 4 μM): 100% | Specific Activity Individual (CYP2A6; Donor 1, Metaxalone 4 μM): <2.68 pmol/min/million cells | Specific Activity Mean ± SD (CYP2A6; Donor 1, Metaxalone 4 μM): <2.68 ± 0.000 pmol/min/million cells | Percent of VC (CYP2A6; Donor 1, Metaxalone 40 μM): 100% | Specific Activity Individual (CYP2A6; Donor 1, Metaxalone 40 μM): <2.68 pmol/min/million cells | Specific Activity Mean ± SD (CYP2A6; Donor 1, Metaxalone 40 μM): <2.68 ± 0.000 pmol/min/million cells | Percent of VC (CYP2A6; Donor 2, Metaxalone 0.4 μM): 100% | Specific Activity Individual (CYP2A6; Donor 2, Metaxalone 0.4 μM): <2.68 pmol/min/million cells | Specific Activity Mean ± SD (CYP2A6; Donor 2, Metaxalone 0.4 μM): <2.68 ± 0.000 pmol/min/million cells | Percent of VC (CYP2A6; Donor 2, Metaxalone 4 μM): 100% | Specific Activity Individual (CYP2A6; Donor 2, Metaxalone 4 μM): <2.68 pmol/min/million cells | Specific Activity Mean ± SD (CYP2A6; Donor 2, Metaxalone 4 μM): <2.68 ± 0.000 pmol/min/million cells | Percent of VC (CYP2A6; Donor 2, Metaxalone 40 μM): 100% | Specific Activity Individual (CYP2A6; Donor 2, Metaxalone 40 μM): <2.68 pmol/min/million cells | Specific Activity Mean ± SD (CYP2A6; Donor 2, Metaxalone 40 μM): <2.68 ± 0.000 pmol/min/million cells | Percent of VC (CYP2A6; Donor 3, Metaxalone 0.4 μM): 100% | Specific Activity Individual (CYP2A6; Donor 3, Metaxalone 0.4 μM): <2.68 pmol/min/million cells | Specific Activity Mean ± SD (CYP2A6; Donor 3, Metaxalone 0.4 μM): <2.68 ± 0.000 pmol/min/million cells | Percent of VC (CYP2A6; Donor 3, Metaxalone 4 μM): 100% | Specific Activity Individual (CYP2A6; Donor 3, Metaxalone 4 μM): <2.68 pmol/min/million cells | Specific Activity Mean ± SD (CYP2A6; Donor 3, Metaxalone 4 μM): <2.68 ± 0.000 pmol/min/million cells | Percent of VC (CYP2A6; Donor 3, Metaxalone 40 μM): 100% | Specific Activity Individual (CYP2A6; Donor 3, Metaxalone 40 μM): <2.68 pmol/min/million cells | Specific Activity Mean ± SD (CYP2A6; Donor 3, Metaxalone 40 μM): <2.68 ± 0.000 pmol/min/million cells | effects on CYP activity (CYP2A6; any of the tested concentrations (0.4, 4.0, 40 μM)): no significant effects | inhibition of CYP activity at a statistically significant level (CYP2C19 [1]; 0.3-100 μM metaxalone, p≦0.05): inhibited | Inhibitor (CYP2C19 [1]; CYP isozyme 2C19, summary of studies): + | Percent of VC (CYP2C19 [1]; metaxalone 0.3 μM): 84.6% | Specific Activity Individual (CYP2C19 [1]; metaxalone 0.3 μM): 19.4 pmol/min/mg protein and 18.9 pmol/min/mg protein | Specific Activity Mean ± SD (CYP2C19 [1]; metaxalone 0.3 μM): 19.0 ± 0.399 pmol/min/mg protein | Percent of VC (CYP2C19 [1]; metaxalone 1 μM): 67.0% | Specific Activity Individual (CYP2C19 [1]; metaxalone 1 μM): 14.8 pmol/min/mg protein | Specific Activity Mean ± SD (CYP2C19 [1]; metaxalone 1 μM): 15.0 ± 0.186 pmol/min/mg protein | Percent of VC (CYP2C19 [1]; metaxalone 3 μM): 67.7% | Specific Activity Individual (CYP2C19 [1]; metaxalone 3 μM): 15.5 pmol/min/mg protein and 14.8 pmol/min/mg protein | Specific Activity Mean ± SD (CYP2C19 [1]; metaxalone 3 μM): 15.2 ± 0.317 pmol/min/mg protein | Percent of VC (CYP2C19 [1]; metaxalone 30 μM): 63.8% | Specific Activity Individual (CYP2C19 [1]; metaxalone 30 μM): 11.1 pmol/min/mg protein and 16.5 pmol/min/mg protein and 15.3 pmol/min/mg protein | Specific Activity Mean ± SD (CYP2C19 [1]; metaxalone 30 μM): 14.3 ± 2.82 pmol/min/mg protein | Percent of VC (CYP2C19 [1]; metaxalone 100 μM): 64.9% | Specific Activity Individual (CYP2C19 [1]; metaxalone 100 μM): 14.5 pmol/min/mg protein and 14.8 pmol/min/mg protein and 14.3 pmol/min/mg protein | Specific Activity Mean ± SD (CYP2C19 [1]; metaxalone 100 μM): 14.5 ± 0.274 pmol/min/mg protein | Metaxalone Present Adjusted Individual (CYP2E1; metaxalone 0.5 μM): 0.357 µM and 0.345 µM and 0.353 µM | Metaxalone Present Adjusted Mean ± SD (CYP2E1; metaxalone 0.5 μM): 0.352 ± 0.00648 µM | Metaxalone Present Raw (CYP2E1; metaxalone 0.5 μM): 0.1787 µM and 0.1724 µM and 0.1766 µM | Percent of Metabolic Negative Control Individual (CYP2E1; metaxalone 0.5 μM): 101% and 97.0% and 99.4% | Percent of Metabolic Negative Control Mean ± SD (CYP2E1; metaxalone 0.5 μM): 99.0 ± 1.83% | Metaxalone Present Adjusted Individual (CYP2E1; metaxalone 2.5 μM): 1.77 μM and 1.76 μM (2×) | Metaxalone Present Adjusted Mean ± SD (CYP2E1; metaxalone 2.5 μM): 1.76 ± 0.00318 µM | Metaxalone Present Raw (CYP2E1; metaxalone 2.5 μM): 0.883 µM and 0.8799 µM and 0.8821 µM | Percent of Metabolic Negative Control Individual (CYP2E1; metaxalone 2.5 μM): 104% | Percent of Metabolic Negative Control Mean ± SD (CYP2E1; metaxalone 2.5 μM): 104 ± 0.188% | Metaxalone Present Adjusted Individual (CYP2E1; metaxalone 25 μM): 17.5 µM and 22.3 µM and 17.8 µM | Metaxalone Present Adjusted Mean ± SD (CYP2E1; metaxalone 25 μM): 19.2 ± 2.71 µM | Metaxalone Present Raw (CYP2E1; metaxalone 25 μM): 8.732 µM and 11.15 µM and 8.879 µM | Percent of Metabolic Negative Control Individual (CYP2E1; metaxalone 25 μM): 98.2% and 125% and 99.9% | Percent of Metabolic Negative Control Mean ± SD (CYP2E1; metaxalone 25 μM): 108 ± 15.3% | mean disappearance of metaxalone (CYP2C19 [2]; 0.5 μM metaxalone): 6.6% | Metaxalone Present Adjusted Individual (CYP2C19 [2]; metaxalone 0.5 μM): 0.335 µM and 0.344 µM and 0.356 µM | Metaxalone Present Adjusted Mean ± SD (CYP2C19 [2]; metaxalone 0.5 μM): 0.345 ± 0.0104 µM | Metaxalone Present Raw (CYP2C19 [2]; metaxalone 0.5 μM): 0.1677 µM and 0.1718 µM and 0.1781 µM | Percent of Metabolic Negative Control Individual (CYP2C19 [2]; metaxalone 0.5 μM): 90.8% and 93.0% and 96.4% | Percent of Metabolic Negative Control Mean ± SD (CYP2C19 [2]; metaxalone 0.5 μM): 93.4 ± 2.82% | Metaxalone Present Adjusted Individual (CYP2C19 [2]; metaxalone 2.5 μM): 1.34 μM (2×) and 1.35 μM | Metaxalone Present Adjusted Mean ± SD (CYP2C19 [2]; metaxalone 2.5 μM): 1.34 ± 0.00561 µM | Metaxalone Present Raw (CYP2C19 [2]; metaxalone 2.5 μM): 0.6722 µM and 0.6725 µM and 0.6675 µM | Percent of Metabolic Negative Control Individual (CYP2C19 [2]; metaxalone 2.5 μM): 96.7% (2×) and 96.0% | Percent of Metabolic Negative Control Mean ± SD (CYP2C19 [2]; metaxalone 2.5 μM): 96.5 ± 0.404% | Metaxalone Present Adjusted Individual (CYP2C19 [2]; metaxalone 25 μM): 18.7 μM (2×) and 18.5 μM | Metaxalone Present Adjusted Mean ± SD (CYP2C19 [2]; metaxalone 25 μM): 18.6 ± 0.120 µM | Metaxalone Present Raw (CYP2C19 [2]; metaxalone 25 μM): 9.345 µM and 9.359 µM and 9.249 µM | Percent of Metabolic Negative Control Individual (CYP2C19 [2]; metaxalone 25 μM): 92.9% and 93.0% and 91.9% | Percent of Metabolic Negative Control Mean ± SD (CYP2C19 [2]; metaxalone 25 μM): 92.6 ± 0.597% | percent turnover (CYP3A4; 0.75 μM metaxalone, 5 pmol CYP450): 17.9% | % Turnover Mean (CYP3A4; 0.75 μM metaxalone, 5 pmol cyp): 17.9% | [metaxalone] Mean (CYP3A4; 0.75 μM metaxalone, 5 pmol cyp): 0.585 µM | % Turnover % (CYP3A4; 0.75 μM metaxalone, 5 pmol cyp): 20.3% and 18.3% and 15.0% | [metaxalone] (CYP3A4; 0.75 μM metaxalone, 5 pmol cyp): 0.567 µM and 0.582 µM and 0.605 µM | percent turnover (CYP3A4; 0.75 μM metaxalone, 20 pmol CYP450): 34.0% | % Turnover Mean (CYP3A4; [3]): 34.0% | [metaxalone] Mean (CYP3A4; [3]): 0.470 µM | % Turnover % (CYP3A4; [3]): 31.7% and 39.0% and 31.4% | [metaxalone] (CYP3A4; [3]): 0.486 µM and 0.434 µM and 0.488 µM | percent turnover (CYP3A4; 7.5 μM metaxalone, 5 pmol CYP450): 16.6% | % Turnover Mean (CYP3A4; 7.5 μM metaxalone, 5 pmol cyp): 16.6% | [metaxalone] Mean (CYP3A4; 7.5 μM metaxalone, 5 pmol cyp): 6.43 µM | % Turnover % (CYP3A4; 7.5 μM metaxalone, 5 pmol cyp): 17.5% and 16.7% and 15.7% | [metaxalone] (CYP3A4; 7.5 μM metaxalone, 5 pmol cyp): 6.36 µM and 6.43 µM and 6.50 µM | percent turnover (CYP3A4; 7.5 μM metaxalone, 20 pmol CYP450): 32.4% | % Turnover Mean (CYP3A4; 7.5 μM metaxalone, 20 pmol cyp): 32.4% | [metaxalone] Mean (CYP3A4; 7.5 μM metaxalone, 20 pmol cyp): 5.22 µM | % Turnover % (CYP3A4; 7.5 μM metaxalone, 20 pmol cyp): 34.3% and 32.8% and 30.0% | [metaxalone] (CYP3A4; 7.5 μM metaxalone, 20 pmol cyp): 5.07 µM and 5.18 µM and 5.40 µM | Substrate (CYP3A4; CYP isozyme 3A4, summary of studies): +
